This is an account of results in PMC6148290, “Endogenous metabolites of vitamin E limit inflammation by targeting 5-lipoxygenase” (Nature Communications, 2018).

Where only a bound is given, the exact number is not on record here.

Data set [1] addresses T1, human recombinant LTC4 synthase (LTC4S) (Homo sapiens, UniProt Q16873).
T1 construct: expressed in transfected cells; host or cells: HEK-293 cells stably expressing LTC4S (microsomal membranes)
T1 sequence (Q16873 1-150): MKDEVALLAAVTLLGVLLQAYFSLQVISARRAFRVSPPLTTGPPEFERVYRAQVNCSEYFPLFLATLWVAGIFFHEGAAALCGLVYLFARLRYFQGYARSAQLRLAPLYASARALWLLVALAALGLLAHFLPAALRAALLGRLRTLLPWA
The data set can be described thus: LTC4 synthase activity. The class given is biochemical. As for the experimental part:
To investigate the effect of LCMs on LTC4S activity, we used microsomal membranes from HEK-293 cells stably expressing LTC4S[70]. […] The conversion of LTA4 to LTC4 methyl esters was initiated by addition of LTA4 methyl ester (Cayman Chemicals; 1 µM). After 10 min at 4 °C, the reaction was terminated by ice-cold methanol (one volume), and LTC-d5 methyl ester (5 ng; Cayman Chemicals) was added as internal standard. LTC4 was extracted and analyzed by UPLC-MS/MS as described for lipid mediators. Vehicle (DMSO)-treated microsomal membranes produced 7.1 ± 0.5 nmol LTC4.

Another data set relates to intracellular Ca^2+. The data set is described as follows: Intracellular Ca2+ in fMLP-stimulated PMNL. The class given is cell-based, human. As for the experimental part:
PMNL (1 × 10^6) were incubated with Fura-2/AM (Thermo Fisher Scientific; 2 nmol) for 45 min at 37 °C, washed, resuspended in PBS pH 7.4 plus 1 mg/ml glucose and transferred to fluorescene 96-well microplates (Greiner). After pre-incubation with compounds for 10 min, 1 mM Ca^2+ was added, and cells were stimulated with fMLP (1 µM) for another 10 min. Intracellular Ca^2+ concentrations were determined using a thermally (37 °C) controlled NOVOstar fluorescence microplate reader [BMG Labtech, Ortenberg, Germany; emission at 510 nm, excitation at 340 nm (Ca^2+-bound Fura-2) and 380 nm (free Fura-2)][17]. The maximal fluorescence signal was recorded after lysis of […] with Triton X-100, and the minimal fluorescence was assessed by adding 20 mM EDTA to chelate Ca^2+. The difference in the signal ratio obtained with Triton X-100 and Triton X-100 plus 20 mM EDTA was set to 100% for each experiment.

The next data set concerns PMNL. The data set is described as follows: Uptake of vitamin E metabolites by PMNL. The class given is in vitro ADME, human. The conditions noted are these: 150 nM, 20 min; calculated for spherical PMNL, diameter 13 µm. As for the experimental part: Freshly isolated PMNL (1 × 10^7/ml) were suspended in PBS pH 7.4 containing 1 mg/ml glucose. […] LCMs were extracted and analyzed by UPLC-MS/MS using γ-TE-13′-COOH (4g; 12.5 pmol) as internal standard. Intracellular vitamin E metabolite concentrations were calculated assuming spherical cell shape, an equal intracellular distribution, and an average diameter of 13 µm (as determined using a Vi-CELL Series Cell Counter, Beckman Coulter, Krefeld, Germany).

Data set [2] deals with zymosan-induced murine peritonitis. The data set is described as follows: Zymosan-induced peritonitis in mice. The class given is in vivo, mouse. To be noted: 10 mg/kg i.p. As for the experimental part:
Mice were killed by inhalation of CO2 after another 30 min for determination of LTC4 levels and vascular permeability and after 4 h for the analysis of LTB4 levels, lipidomic profiles and immune cell infiltration. Cell infiltration and lipid mediator profiles during resolution were studied after 18 h. Peritoneal exudates were collected and cells counted after vital trypan blue staining. LTC4, LTB4, and PGE2 were analyzed in the exudate by enzyme immunoassays (Enzo Life Sciences, Lörrach, Germany) according to manufacturer's instructions. To assess vascular permeability, Evans blue dye (40 mg/kg in saline, 0.3 ml; Sigma-Aldrich) was injected into the tail vain immediately before the induction of peritonitis. Exudates were centrifuged (3000 × g, 5 min) and the absorbance of the supernatants was measured at 610 nm using a Beckman Coulter DU730 spectrophotometer. To investigate the effect of α-T (1a) on the accumulation of α-T-13'-COOH (4a) in infiltrated leukocytes after peritonitis has been established, vehicle or α-[…].) were given 1 h before and/or 4 h post zymosan injection, and mice were killed after another 1.5 h. Leukocytes were obtained from peritoneal exudates by centrifugation (1200 × g, 10 min, 4 °C).

A further data set addresses T2, bovine COX-1 (Bos taurus, UniProt O62664).
T2 construct: purchased Cayman Chemicals
T2 sequence (O62664 25-600): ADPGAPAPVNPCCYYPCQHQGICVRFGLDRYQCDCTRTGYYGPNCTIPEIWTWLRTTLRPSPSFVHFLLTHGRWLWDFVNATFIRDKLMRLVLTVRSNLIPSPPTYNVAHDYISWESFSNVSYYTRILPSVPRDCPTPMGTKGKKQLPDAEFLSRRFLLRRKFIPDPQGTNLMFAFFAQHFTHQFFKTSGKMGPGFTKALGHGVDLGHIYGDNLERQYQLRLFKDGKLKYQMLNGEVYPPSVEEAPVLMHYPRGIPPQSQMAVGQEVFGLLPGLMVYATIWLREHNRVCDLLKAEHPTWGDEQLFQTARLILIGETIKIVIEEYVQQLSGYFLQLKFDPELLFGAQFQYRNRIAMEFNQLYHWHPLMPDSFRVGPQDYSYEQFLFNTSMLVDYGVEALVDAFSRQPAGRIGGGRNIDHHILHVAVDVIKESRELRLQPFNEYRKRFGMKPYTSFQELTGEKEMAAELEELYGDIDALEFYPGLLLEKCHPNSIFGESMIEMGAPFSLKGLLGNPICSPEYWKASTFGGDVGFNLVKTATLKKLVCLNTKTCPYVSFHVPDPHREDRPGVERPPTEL
The data set is described as follows: Activity of isolated COX-1. The class given is biochemical. The protocol:
Purified bovine COX-1 (Cayman Chemicals; 50 units) or human recombinant COX-2 (Cayman Chemicals; 20 units) in 100 mM Tris buffer pH 8, 5 mM glutathione, 5 µM hemoglobin, and 100 µM EDTA were pre-incubated with LCMs for 5 min at 4 °C followed by 1 min at 37 °C. Formation of COX-derived 12(S)-hydroxy-5-cis-8,10-trans-heptadecatrienoic acid (12-HHT) was initiated by addition of AA (COX-1: 5 μM; COX-2: 2 μM).

The subject of the next data set is LTB4 formation. The data set can be described thus: LTB4 formation in LPS/fMLP-stimulated human blood. The class given is cell-based. The conditions noted are these: 100 nM. As for the experimental part: LPS-activated monocytes were treated with A23187 (2.5 µM) and AA (20 µM) to induce lipid mediator biosynthesis as described for LO product formation. Human blood was pre-incubated with vehicle (DMSO) or α-T-13′-COOH (4a, 100 nM) for 10 min, primed with LPS (1 µg/ml) for 30 min and stimulated with N-formyl-methionyl-leucyl-phenylalanine (fMLP, Sigma-Aldrich; 1 µM) for 15 min at 37 °C.

Regarding `Cc1c(C)c2c(c(C)c1O)CC[C@@](C)(CCCC(C)CCCC(C)CCCC(C)C(=O)O)O2` (stereo partly drawn) [4a, 13-((2R)-6-hydroxy-2,5,7,8-tetramethylchroman-2-yl)-2,6,10-trimethyltridecanoic acid], in data set [1], the IC50 was 9.9 µM. Also, in the data set on intracellular Ca^2+, the “effect on intracellular Ca^2+” value was “neither affected”. Also, the “intracellular concentration reached in PMNL” value in the data set with PMNL is “micromolar”. The vascular permeability result in data set [2] (30 min post zymosan) is recorded as “reduced”. In data set [2] (30 min post zymosan, ELISA), the “LTC4 levels in the exudate” value is given as “strongly decreased”. In data set [2] (4 h post zymosan), the “immune cell infiltration into the peritoneal cavity” value is given as “impaired”. Also, the “LTB4 levels in the exudate” value in data set [2] (4 h post zymosan, ELISA) is “impaired”. Also, in data set [2] (18 h post zymosan), the “circulating resolvin E3 in plasma” value is reported as “strongly increased” and the “suppressive effect on cell infiltration at the resolution phase” value is recorded as “vanished”. The same molecule had an IC50 on bovine COX-1 of more than 10 µM. Besides, the “effect on LTB4 formation in activated human blood” value with LTB4 formation is “inhibited”.

A word on the IC50: it is the concentration needed to halve the response being measured.
